Assay results taken from patent publication US6004932A, “Use of glucagon as a metabolic conditioner for dairy cows and other ruminants” (Iowa State University Research Foundation, Inc., priority 1998, dated 1999).

Assays:
Assay type in all cases: in vivo
[1] = system: multiparous Holstein cows; assay: Effect of glucagon on liver glycogen content of dairy cows, liver biopsies; details: NTG and STG groups, FIG. 3
Procedure: (§1) Glucagon purified from bovine pancreas, was weighed, dissolved in 0.09% NaCl adjusted to pH 10.5, and diluted so that the amount to be infused daily was contained in 480 ml to allow for an infusion rate of 20 ml/h. All glassware that was to be in contact with glucagon was rinsed with a solution of 1.0% bovine serum albumin to prevent adherence of glucagon to glass surfaces.
The four groups of 10 multiparous Holstein cows per group that were used for the main trial were normal controls (NC), normal cows treated with glucagon (NTG), susceptible controls that should be inducible into ketosis (SC), and susceptible cows treated with glucagon (STG). The two groups of 10 normal cows were selected from cows that had body condition scores at calving that ranged from 3.2 to 3.8. The two groups of 10 susceptible cows were selected from obese cows that have been fed at 2 times NRC requirements for energy during late lactation and throughout the dry period so they calved at a body condition score of 4.0 to 4.5. […]
(§2) A liver biopsy was taken at 7 days postpartum and analyzed immediately for triacylglycerols and glycogen. […]
(§3) On d 14 postpartum, the SC and the STG groups began the FRBD (feed restriction and 1,3-butanediol in the diet) protocol in which feed intake was restricted to 80% of the average intake for the previous 2 days and 1,3-butanediol (BD) was added, a precursor of ketone bodies, to the ration in increasing quantities either until the cow became ketotic or until 1.4 kg of BD was offered daily. […]
Glycogen and triacylglycerol concentrations of liver samples were determined as described by Mills, S. E. et al., "Characterization of metabolic changes during a protocol for inducing lactation ketosis in dairy cows", J. Dairy Sci. 69:352 (1986a). Total lipid content was measured as described by Drackley, J. K. et al., "Metabolic changes in blood and liver of dairy cows during feed restriction or administration of 1,3-butanediol", J. Dairy Sci., 74:4254 (1991). […]

[2] = system: multiparous Holstein cows; assay: Effect of glucagon on liver triacylglycerol (lipid) levels of dairy cows, liver biopsies
Procedure: as §1
The four groups of 10 multiparous Holstein cows per group that were used for the main trial were normal controls (NC), normal cows treated with glucagon (NTG), susceptible controls that should be inducible into ketosis (SC), and susceptible cows treated with glucagon (STG). […]
as §2, §3
Glycogen and triacylglycerol concentrations of liver samples were determined as described by Mills, S. E. et al., "Characterization of metabolic changes during a protocol for inducing lactation ketosis in dairy cows", J. Dairy Sci. 69:352 (1986a). […]

[3] = system: early lactation dairy cows; assay: Preliminary data on glucagon doses above 10 mg/day in early lactation dairy cows; details: doses of greater than 10 mg/day; inventors' preliminary data
dairy cows = assay: Toxicity observation during glucagon treatment of dairy cows; details: treated dairy cows, 10 mg/day
Procedure: On d 14 postpartum, the SC and the STG groups began the FRBD (feed restriction and 1,3-butanediol in the diet) protocol in which feed intake was restricted to 80% of the average intake for the previous 2 days and 1,3-butanediol (BD) was added, a precursor of ketone bodies, to the ration in increasing quantities either until the cow became ketotic or until 1.4 kg of BD was offered daily. The STG group at 21 days postpartum began to receive a continuous intravenous infusion of 10 mg of glucagon daily, which continued for 14 days. The SC group were infused with saline as a vehicle control. The NC and the NTG groups continued to receive feed for ad libitum intake, but the NTG group received an infusion of glucagon from d 21 to 35 postpartum and the NC group was infused with vehicle control. (The NTG group gave information on how normal early lactation cows respond to 14-day intravenous infusions of glucagon).

For glucagon, the “liver glycogen content after d 38, before the 42-d biopsy” value ([1]; after termination of infusion) was “dropped dramatically”, the “liver glycogen concentration from the 20-d to the 23-d biopsy sample” value ([1]; after infusions began at d 21) was “decreased” and the “liver glycogen concentration from d 23 up to the d 38 biopsy” value ([1]; d 38 is 3 d after infusions stopped) was “increased at a parallel rate”. The “liver triacylglycerol, covariate adjusted to average d-7 value, normal cows” value ([2]; NTG vs NC, FIG. 2) was “only a slight difference between the NC and the NTG groups”, the “change in concentration of lipid in livers of normal cows” value ([2]; normal cows (NTG vs NC), 10 mg/d intravenous infusion d 21-35 postpartum, FIG. 1) was “no major decrease” and the “incidence of fatty liver at high dose” value [3] was “may actually increase the incidence of fatty liver”. For the same substance, the “glucagon toxicity in the animals” value (dairy cows) was “without any indication of glucagon toxicity”.
